Assays:
Assay type in all cases: cell-based
U251 = assay: NCIDTP 60 cancer cell lines screening, CNS Cancer panel
HOP-92 = assay: NCIDTP 60 cancer cell lines screening, Non-Small Cell Lung Cancer panel
MDA-MB-435 = assay: NCIDTP 60 cancer cell lines screening, Melanoma panel
NCI/ADR-RES = assay: NCIDTP 60 cancer cell lines screening, Ovarian Cancer panel
MOLT-4 = assay: NCIDTP 60 cancer cell lines screening, Leukemia panel
SK-MEL-28 = assay: NCIDTP 60 cancer cell lines screening, Melanoma panel
SF-295 = assay: NCIDTP 60 cancer cell lines screening, CNS Cancer panel
MDA-MB-468 = assay: NCIDTP 60 cancer cell lines screening, Breast Cancer panel
HCT-116 = assay: NCIDTP 60 cancer cell lines screening, Colon Cancer panel; settings: HCT-116

Cc1ccc(C)c(COc2cc(NC(=O)c3ccc4c(c3)OCO4)ccc2N(C)S(C)(=O)=O)c1 [Compound #10, Benzo[1,3]dioxole-5-carboxylic acid [3-(2,5-dimethyl-benzyloxy)-4-(methanesulfonyl-methyl-amino)-phenyl]-amide]
CC50 (U251; Homo sapiens, U-251, read-out: LC50): > 100000 nM | GI50 (U251; Homo sapiens, U-251, U251): 266 nM | TGI (U251; U251): 2.19E−5 Molar | Percent Growth (U251; U251, Log10 Concentration −4.0 Molar): −16% | Percent Growth (U251; U251, Log10 Concentration −5.0 Molar): 8% | Percent Growth (U251; U251, Log10 Concentration −6.0 Molar): 15% | Percent Growth (U251; U251, Log10 Concentration −7.0 Molar): 76% | Percent Growth (U251; U251, Log10 Concentration −8.0 Molar): 97% | TGI (HOP-92; HOP-92): >1.00E−4 Molar | Percent Growth (HOP-92; HOP-92, Log10 Concentration −4.0 Molar): 37% | Percent Growth (HOP-92; HOP-92, Log10 Concentration −5.0 Molar): 39% | Percent Growth (HOP-92; HOP-92, Log10 Concentration −6.0 Molar): 62% | Percent Growth (HOP-92; HOP-92, Log10 Concentration −7.0 Molar): 62% | Percent Growth (HOP-92; HOP-92, Log10 Concentration −8.0 Molar): 78% | GI50 (HOP-92; Homo sapiens, HOP-92): 32.2 nM | CC50 (HOP-92; Homo sapiens, HOP-92, read-out: LC50): > 100000 nM | GI50 (MDA-MB-435; Homo sapiens, MDA-MB-435): 28.5 nM | CC50 (MDA-MB-435; Homo sapiens, MDA-MB-435, read-out: LC50): > 100000 nM | TGI (MDA-MB-435; MDA-MB-435): 9.14E−8 Molar | Percent Growth (MDA-MB-435; MDA-MB-435, Log10 Concentration −4.0 Molar): −17% | Percent Growth (MDA-MB-435; MDA-MB-435, Log10 Concentration −5.0 Molar): −28% | Percent Growth (MDA-MB-435; MDA-MB-435, Log10 Concentration −6.0 Molar): −30% | Percent Growth (MDA-MB-435; MDA-MB-435, Log10 Concentration −7.0 Molar): −4% | Percent Growth (MDA-MB-435; MDA-MB-435, Log10 Concentration −8.0 Molar): 95% | TGI (NCI/ADR-RES): 4.07E−7 Molar | GI50 (NCI/ADR-RES; Homo sapiens): 56.2 nM | CC50 (NCI/ADR-RES; Homo sapiens, read-out: LC50): > 100000 nM | Percent Growth (NCI/ADR-RES; Log10 Concentration −4.0 Molar): −20% | Percent Growth (NCI/ADR-RES; Log10 Concentration −5.0 Molar): −12% | Percent Growth (NCI/ADR-RES; Log10 Concentration −6.0 Molar): −22% | Percent Growth (NCI/ADR-RES; Log10 Concentration −7.0 Molar): 34% | Percent Growth (NCI/ADR-RES; Log10 Concentration −8.0 Molar): 98% | GI50 (MOLT-4; Homo sapiens, MOLT-4): 163 nM | CC50 (MOLT-4; Homo sapiens, MOLT-4, read-out: LC50): > 100000 nM | TGI (MOLT-4; MOLT-4): >1.00E−4 Molar | Percent Growth (MOLT-4; MOLT-4, Log10 Concentration −4.0 Molar): 13% | Percent Growth (MOLT-4; MOLT-4, Log10 Concentration −5.0 Molar): 7% | Percent Growth (MOLT-4; MOLT-4, Log10 Concentration −6.0 Molar): 12% | Percent Growth (MOLT-4; MOLT-4, Log10 Concentration −7.0 Molar): 80% | Percent Growth (MOLT-4; MOLT-4, Log10 Concentration −8.0 Molar): 99% | GI50 (SK-MEL-28; Homo sapiens, SK-MEL-28): 692 nM | CC50 (SK-MEL-28; Homo sapiens, SK-MEL-28, read-out: LC50): > 100000 nM | TGI (SK-MEL-28; SK-MEL-28): >1.00E−4 Molar | Percent Growth (SK-MEL-28; SK-MEL-28, Log10 Concentration −4.0 Molar): 50% | Percent Growth (SK-MEL-28; SK-MEL-28, Log10 Concentration −5.0 Molar): 49% | Percent Growth (SK-MEL-28; SK-MEL-28, Log10 Concentration −6.0 Molar): 44% | Percent Growth (SK-MEL-28; SK-MEL-28, Log10 Concentration −7.0 Molar): 83% | Percent Growth (SK-MEL-28; SK-MEL-28, Log10 Concentration −8.0 Molar): 91% | GI50 (SF-295; Homo sapiens, SF-295): 98.3 nM | CC50 (SF-295; Homo sapiens, SF-295, read-out: LC50): > 100000 nM | TGI (SF-295; SF-295): 6.26E−7 Molar | Percent Growth (SF-295; SF-295, Log10 Concentration −4.0 Molar): −15% | Percent Growth (SF-295; SF-295, Log10 Concentration −5.0 Molar): −16% | Percent Growth (SF-295; SF-295, Log10 Concentration −6.0 Molar): −13% | Percent Growth (SF-295; SF-295, Log10 Concentration −7.0 Molar): 50% | Percent Growth (SF-295; SF-295, Log10 Concentration −8.0 Molar): 92% | GI50 (MDA-MB-468; Homo sapiens, MDA-MB-468): 155 nM | CC50 (MDA-MB-468; Homo sapiens, MDA-MB-468, read-out: LC50): 19900 nM | TGI (MDA-MB-468; MDA-MB-468): 4.01E−7 Molar | Percent Growth (MDA-MB-468; MDA-MB-468, Log10 Concentration −4.0 Molar): −56% | Percent Growth (MDA-MB-468; MDA-MB-468, Log10 Concentration −5.0 Molar): −47% | Percent Growth (MDA-MB-468; MDA-MB-468, Log10 Concentration −6.0 Molar): −48% | Percent Growth (MDA-MB-468; MDA-MB-468, Log10 Concentration −7.0 Molar): 73% | Percent Growth (MDA-MB-468; MDA-MB-468, Log10 Concentration −8.0 Molar): 85% | TGI (HCT-116): 1.02E−6 Molar | Percent Growth (HCT-116; Log10 Concentration −4.0 Molar): −47% | Percent Growth (HCT-116; Log10 Concentration −5.0 Molar): −47% | Percent Growth (HCT-116; Log10 Concentration −7.0 Molar): 45% | Percent Growth (HCT-116; Log10 Concentration −8.0 Molar): 89%
